Measured values published in patent US9271993B2, “Treatment of bacterial infectious diseases” (priority 2010, dated 2016).
Values after ≈ are worked out from the molar mass of the structure shown. Like-named read-outs stand apart in the source and are kept apart here.

Key:
[1] = test system: clinical methicillin resistant Staphylococcus aureus (MRSA) isolates; assay: MIC against clinical MRSA isolates, LB microdilution assay
Method: Activity was assessed by determination of minimal inhibitory concentrations (MIC), as described in Pfister et al., Antimicrob. […] Cultures from single colonies were grown in LB medium and used for MIC tests in a microtiter plate format. Starting cultures contained 200 μl of bacterial cells at an optical density of 0.025 at 600 nm, and the respective drug was added in twofold series of dilution.

[2] = test system: M. kansasii; assay: Drug susceptibility of non-tuberculous slow-growing mycobacteria, MGIT960; format: cell-based
[3] = test system: M. avium-intracellulare; assay: as above; format: cell-based
[4] = test system: M. massiliense; assay: MIC against non-tuberculous rapidly-growing mycobacteria, microdilution; format: cell-based; details: Mycobacteroides abscessus, read-out: minimal inhibitory concentration (MIC)
Method: (§1) Activity of apramycin was assessed in standard microdilution assays and is expressed as minimal inhibitory concentration (MIC) in μg/ml.

[5] = test system: M. bolletii; assay: as above; format: cell-based; details: Mycobacteroides abscessus, read-out: minimal inhibitory concentration (MIC)
Method: as §1

[6] = test system: M. abscessus; assay: as above; format: cell-based; details: Mycobacteroides abscessus; strain 500039/08 M. abscessus; read-out: minimal inhibitory concentration (MIC)
Method: as §1

[7] = test system: E. coli; assay: MIC against gram-negative bacteria; format: cell-based; details: Escherichia coli, read-out: MIC
Source text: Agents Chemother. 2003, 47:1496-1502.

[8] = test system: mitohybrid ribosomes; assay: Ribosomal drug susceptibility (MIC) of recombinant bacteria; set-up: MIC, mitohybrid ribosomes: unit not given beside the values; details: Table 7; 72 h incubation
[9] = test system: bacterial ribosomes; assay: as above; set-up: MIC, bacterial ribosomes: unit not given beside the values; details: Table 7; 72 h incubation
[10] = test system: cytohybrid ribosomes; assay: as above; set-up: MIC, cytohybrid ribosomes: unit not given beside the values; details: Table 7; 72 h incubation
[11] = Staphylococcus aureus, MRSA, MRSA AG038, strain 70-26S Gm^S
[12] = Staphylococcus aureus, MRSA, MRSA AG040, strain 87-26S Gm^S
[13] = Staphylococcus aureus, MRSA, MRSA AG041, strain 98-25S Gm^S
[14] = Staphylococcus aureus, MRSA, MRSA AG042, strain 101-06R Gm^R
[15] = Staphylococcus aureus, MRSA, MRSA AG043, strain 01-08R Gm^R
[16] = Staphylococcus aureus, MRSA, MRSA AG044, strain 07-12R Gm^R
[17] = Staphylococcus aureus, MRSA, MRSA AG045, strain 08-12R Gm^R
[18] = Staphylococcus aureus, MRSA, MRSA AG049, strain 23-12R Gm^R
[19] = Staphylococcus aureus, MRSA, MRSA AG050, strain 31-06R Gm^R
[20] = Staphylococcus aureus, MRSA, MRSA AG051, strain 36-06R Gm^R
[21] = Staphylococcus aureus, MRSA, MRSA AG052, strain 53-14I Gm^R
[22] = Staphylococcus aureus, MRSA, MRSA AG053, strain 56-06R Gm^R
[23] = strain 177217/10 M. massiliense
[24] = strain 186139/07 M. massiliense
[25] = strain 500044/09 M. massiliense
[26] = E. coli AG01, clin. isol. (Gm^S)
[27] = E. coli AG02, clin. isol (Gm^S)
[28] = E. coli AG03, clin. isol (Gm^R)
[29] = E. coli AG07, BM13/pIP135, resistance mechanism AAC(3)
[30] = E. coli AG08, BM13/pIP055, resistance mechanism ANT(2″)
[31] = E. coli AG09, AAC(6′)-1B, resistance mechanism AAC(6′)
[32] = E. coli AG36, HB101/pAT197, resistance mechanism ANT(4′)
[33] = E. coli AG37, HB101/pAG21-1, resistance mechanism APH(3′)
[34] = Staphylococcus aureus, MRSA, MRSA AG048, strain 20-06R Gm^R

NCC[C@H](O)C(=O)N[C@@H]1C[C@H](N)[C@@H](O[C@H]2O[C@H](CN)[C@@H](O)[C@H](O)[C@H]2O)[C@H](O)[C@H]1O[C@H]1O[C@H](CO)[C@@H](O)[C@H](N)[C@H]1O [Amikacin]
MIC ([1]; MRSA AG048, strain 20-06R Gm^R): 256 µg/mL (≈ 437 µM) | MIC ([1]; Staphylococcus aureus, MRSA): 256 µg/mL (≈ 437 µM) | MIC [1, 11]: 4 µg/mL (≈ 6.83 µM) | MIC [1, 12]: 16 to 32 µg/mL (≈ 27.3 to 54.6 µM) | MIC [1, 13]: 4 to 8 µg/mL (≈ 6.83 to 13.7 µM) | MIC [1, 14]: 16 µg/mL (≈ 27.3 µM) | MIC [1, 15]: 8 to 16 µg/mL (≈ 13.7 to 27.3 µM) | MIC [1, 16]: 4 µg/mL (≈ 6.83 µM) | MIC [1, 17]: 4 µg/mL (≈ 6.83 µM) | MIC ([1]; Staphylococcus aureus, MRSA, MRSA AG046, strain 12-06R Gm^R): 32 µg/mL (≈ 54.6 µM) | MIC [1, 18]: 8 to 16 µg/mL (≈ 13.7 to 27.3 µM) | MIC [1, 19]: 16 µg/mL (≈ 27.3 µM) | MIC [1, 20]: 8 to 16 µg/mL (≈ 13.7 to 27.3 µM) | MIC [1, 21]: 16 µg/mL (≈ 27.3 µM) | MIC [1, 22]: 8 µg/mL (≈ 13.7 µM) | Activity (resistant/susceptible) ([2]; strain 177227/06 M. kansasii, 1 μg/ml): R | Activity (resistant/susceptible) ([2]; strain 177227/06 M. kansasii, 4 μg/ml): S | Activity (resistant/susceptible) ([2]; strain 177227/06 M. kansasii, 10 μg/ml): S | Activity (resistant/susceptible) ([2]; strain 180235/06 M. kansasii, 1 μg/ml): R | Activity (resistant/susceptible) ([2]; strain 180235/06 M. kansasii, 4 μg/ml): S | Activity (resistant/susceptible) ([2]; strain 180235/06 M. kansasii, 10 μg/ml): S | Activity (resistant/susceptible) ([3]; strain 182034/06 M. avium-intracellulare, 1 μg/ml): R | Activity (resistant/susceptible) ([3]; strain 182034/06 M. avium-intracellulare, 4 μg/ml): S | Activity (resistant/susceptible) ([3]; strain 182034/06 M. avium-intracellulare, 10 μg/ml): S | Activity (resistant/susceptible) ([3]; strain 182124/07 M. avium-intracellulare, 1 μg/ml): R | Activity (resistant/susceptible) ([3]; strain 182124/07 M. avium-intracellulare, 4 μg/ml): S | Activity (resistant/susceptible) ([3]; strain 182124/07 M. avium-intracellulare, 10 μg/ml): S | Activity (resistant/susceptible) ([3]; strain 182550/07 M. avium-intracellulare, 1 μg/ml): R | Activity (resistant/susceptible) ([3]; strain 182550/07 M. avium-intracellulare, 4 μg/ml): S | Activity (resistant/susceptible) ([3]; strain 182550/07 M. avium-intracellulare, 10 μg/ml): S | MIC [4, 23]: 8 µg/mL (≈ 13.7 µM) | MIC [4, 24]: 4 µg/mL (≈ 6.83 µM) | MIC [4, 25]: 1 µg/mL (≈ 1.71 µM) | MIC ([5]; strain 179639/10 M. bolletii): 8 µg/mL (≈ 13.7 µM) | MIC ([5]; strain 181739/08 M. bolletii): 4 µg/mL (≈ 6.83 µM) | MIC ([5]; strain 183177/08 M. bolletii): 8 µg/mL (≈ 13.7 µM) | MIC [6]: 1 µg/mL (≈ 1.71 µM)

NC[C@H]1O[C@H](O[C@H]2[C@H](O)[C@@H](O[C@H]3O[C@H](CO)[C@@H](O)[C@H](N)[C@H]3O)[C@H](N)C[C@@H]2N)[C@H](N)C[C@@H]1O [Tobramycin]
MIC [7, 26]: 4 to 8 µg/mL (≈ 8.56 to 17.1 µM) | MIC [7, 27]: 2 µg/mL (≈ 4.28 µM) | MIC [7, 28]: 32 µg/mL (≈ 68.4 µM) | MIC ([7]; E. coli AG06, BM13): 0.5 µg/mL (≈ 1.07 µM) | MIC [7, 29]: 4 µg/mL (≈ 8.56 µM) | MIC [7, 30]: 8 to 64 µg/mL (≈ 17.1 to 137 µM) | MIC [7, 31]: 64 to 128 µg/mL (≈ 137 to 274 µM) | MIC [7, 32]: 16 to 32 µg/mL (≈ 34.2 to 68.4 µM) | MIC [7, 33]: 1 to 2 µg/mL (≈ 2.14 to 4.28 µM) | MIC ([1]; Staphylococcus aureus, MRSA): 128 to 256 µg/mL (≈ 274 to 548 µM) | MIC [1, 11]: 0.5 to 1 µg/mL (≈ 1.07 to 2.14 µM) | MIC [1, 12]: ≥ 256 µg/mL | MIC [1, 13]: 0.5 to 1 µg/mL (≈ 1.07 to 2.14 µM) | MIC [1, 14]: ≥ 256 µg/mL | MIC [1, 15]: 32 µg/mL (≈ 68.4 µM) | MIC [1, 16]: 8 µg/mL (≈ 17.1 µM) | MIC [1, 17]: 8 µg/mL (≈ 17.1 µM) | MIC ([1]; Staphylococcus aureus, MRSA, MRSA AG047, strain 18-06R Gm^R): ≥ 256 µg/mL | MIC [1, 34]: ≥ 256 µg/mL | MIC [1, 18]: 8 to 16 µg/mL (≈ 17.1 to 34.2 µM) | MIC [1, 19]: 32 to 64 µg/mL (≈ 68.4 to 137 µM) | MIC [1, 20]: 32 to 64 µg/mL (≈ 68.4 to 137 µM) | MIC [1, 21]: 8 to 16 µg/mL (≈ 17.1 to 34.2 µM) | MIC [1, 22]: 16 to 32 µg/mL (≈ 34.2 to 68.4 µM) | MIC, mitohybrid ribosomes [8]: 128 | MIC, bacterial ribosomes [9]: 1 | MIC [4, 23]: 32 µg/mL (≈ 68.4 µM) | MIC [4, 24]: 16 µg/mL (≈ 34.2 µM) | MIC [4, 25]: 8 µg/mL (≈ 17.1 µM) | MIC ([5]; strain 179639/10 M. bolletii): 32 µg/mL (≈ 68.4 µM) | MIC ([5]; strain 181739/08 M. bolletii): 32 µg/mL (≈ 68.4 µM) | MIC ([5]; strain 183177/08 M. bolletii): 16 µg/mL (≈ 34.2 µM) | MIC [6]: 4 µg/mL (≈ 8.56 µM) | MIC, cytohybrid ribosomes [10]: 512

NC[C@H]1O[C@H](O[C@H]2[C@H](O)[C@@H](O[C@H]3O[C@H](CO)[C@@H](O)[C@H](N)[C@H]3O)[C@H](N)C[C@@H]2N)[C@H](O)[C@@H](O)[C@@H]1O [Kanamicin A]
MIC [7, 26]: 16 µg/mL (≈ 33 µM) | MIC [7, 27]: 4 to 8 µg/mL (≈ 8.26 to 16.5 µM) | MIC [7, 28]: 16 to 32 µg/mL (≈ 33 to 66 µM) | MIC ([7]; E. coli AG06, BM13): 1 to 2 µg/mL (≈ 2.06 to 4.13 µM) | MIC [7, 29]: 8 µg/mL (≈ 16.5 µM) | MIC [7, 30]: 16 to 128 µg/mL (≈ 33 to 264 µM) | MIC [7, 31]: 256 to 512 µg/mL (≈ 528 to 1060 µM) | MIC [7, 32]: 16 to 32 µg/mL (≈ 33 to 66 µM) | MIC [7, 33]: > 256 µg/mL | MIC ([1]; MRSA AG047, strain 18-06R Gm^R): >256 µg/mL | MIC ([1]; MRSA AG049, strain 23-12R Gm^R): >256 µg/mL | MIC ([1]; MRSA AG050, strain 31-06R Gm^R): >256 µg/mL | MIC ([1]; MRSA AG051, strain 36-06R Gm^R): >256 µg/mL | MIC ([1]; MRSA AG052, strain 53-14I Gm^R): >256 µg/mL | MIC ([1]; Staphylococcus aureus, MRSA): > 256 µg/mL | MIC [1, 11]: 4 µg/mL (≈ 8.26 µM) | MIC [1, 12]: 128 to 256 µg/mL (≈ 264 to 528 µM) | MIC [1, 13]: 2 to 4 µg/mL (≈ 4.13 to 8.26 µM) | MIC [1, 14]: 256 µg/mL (≈ 528 µM) | MIC [1, 15]: 128 to 256 µg/mL (≈ 264 to 528 µM) | MIC [1, 16]: 64 µg/mL (≈ 132 µM) | MIC [1, 17]: 64 µg/mL (≈ 132 µM) | MIC [1, 34]: > 512 µg/mL | MIC [1, 22]: 256 µg/mL (≈ 528 µM) | MIC [4, 23]: 32 µg/mL (≈ 66 µM) | MIC [4, 24]: 32 µg/mL (≈ 66 µM) | MIC [4, 25]: 16 µg/mL (≈ 33 µM) | MIC ([5]; strain 179639/10 M. bolletii): 64 µg/mL (≈ 132 µM) | MIC ([5]; strain 181739/08 M. bolletii): 64 µg/mL (≈ 132 µM) | MIC ([5]; strain 183177/08 M. bolletii): 16 µg/mL (≈ 33 µM) | MIC [6]: 4 µg/mL (≈ 8.26 µM)
